{
  "source": "patent US9913820B2",
  "about": "“Antimicrobial compositions comprising glyceryl nitrates” (Board of Regents, The University of Texas System, priority 2012, dated 2018)",
  "key": {"[1]": {"tested_on": "Methicilin resistant Staphyloccus aureus (MRSA) biofilm", "assay": "Modified Kuhns Biofilm Eradication Model (silicone discs), MRSA", "format": "cell-based", "conditions": "for GTN concentration required to eradicate MRSA: 7% citrate; for viable colonies recovered from the biofilm eradication procedure: MRSA, 2 hrs"}, "[2]": {"tested_on": "Pseudomonas aeruginosa (PA) biofilm", "assay": "Modified Kuhns Biofilm Eradication Model (silicone discs), PA", "format": "cell-based", "conditions": "for viable colonies recovered from the biofilm eradication procedure: PA, 2 hrs"}, "[3]": {"tested_on": "Candida albicans (CA) biofilm", "assay": "Modified Kuhns Biofilm Eradication Model (silicone discs), CA", "format": "cell-based", "conditions": "for viable colonies recovered from the biofilm eradication procedure: CA, 2 hrs"}, "[4]": {"tested_on": "Staphylococcus aureus, Pseudomonas aeruginosa and Candida albicans biofilms", "conditions": "in the presence of ethanol and citrate"}, "[5]": {"conditions": "10% ethanol and 7% citrate, FIG. 5"}},
  "note": "Where two headings read alike, the source gives them in different places.",
  "data": [
    {"smiles": "O=[N+]([O-])OCC(CO[N+](=O)[O-])O[N+](=O)[O-]", "note": "[GTN, glyceryl trinitrate]", "values": [
      {"measurement": "GTN concentration that fully eradicated MRSA", "setting": "[1]; [5]", "value": 0.5, "unit": "mg/mL"},
      {"measurement": "GTN concentration required to eradicate MRSA", "setting": "[1]; 15% ethanol, FIG. 6", "value": 0.2, "unit": "mg/mL"},
      {"measurement": "GTN concentration required to eradicate MRSA", "setting": "[1]; 20% ethanol, FIG. 7", "value": 0.1, "unit": "mg/mL"},
      {"measurement": "viable colonies recovered from the biofilm eradication procedure", "setting": "[1]; component alone at 1 mg/ml", "value": "5.00E+03", "unit": "cfu/ml"},
      {"measurement": "eradication of mature biofilm within 2 hours (in words)", "setting": "[2]", "value": "neither 1 mg/ml GTN nor 7% citrate alone were able to eradicate"},
      {"measurement": "GTN concentration that eradicated P.aeruginosa", "setting": "[2]; [5]", "value": 0.2, "unit": "mg/mL"},
      {"measurement": "viable colonies recovered from the biofilm eradication procedure", "setting": "[2]; component alone at 1 mg/ml", "value": "2.05E+03", "unit": "cfu/ml"},
      {"measurement": "eradication of mature biofilm within 2 hours (in words)", "setting": "[3]", "value": "neither 1 mg/ml GTN nor 7% citrate alone were able to eradicate"},
      {"measurement": "GTN concentration that eradicated C. albicans", "setting": "[3]; [5]", "value": 0.2, "unit": "mg/mL"},
      {"measurement": "viable colonies recovered from the biofilm eradication procedure", "setting": "[3]; component alone at 1 mg/ml", "value": "5.00E+03", "unit": "cfu/ml"},
      {"measurement": "GTN concentration to fully eradicate mature biofilms within 2 hours", "setting": "[4]", "value": 100, "unit": "microgram/ml"},
      {"measurement": "reduction of GTN concentration versus what would be needed by itself", "setting": "[4]; full eradication within 2 hours", "value": 10, "unit": "fold"}
    ]},
    {"smiles": "CCN(CC)C(=S)SSC(=S)N(CC)CC", "note": "[Disulfiram]", "values": [
      {"measurement": "viable colonies recovered from the biofilm eradication procedure", "setting": "[1]; component alone at 0.2 mg/ml", "value": "2.00E+04", "unit": "cfu/ml"},
      {"measurement": "viable colonies recovered from the biofilm eradication procedure", "setting": "[2]; component alone at 0.2 mg/ml", "value": "5.00E+05", "unit": "cfu/ml"},
      {"measurement": "viable colonies recovered from the biofilm eradication procedure", "setting": "[3]; component alone at 0.2 mg/ml", "value": "0.00E+00", "unit": "cfu/ml"}
    ]},
    {"smiles": "O=C(O)CC(O)(CC(=O)O)C(=O)O", "note": "[Citrate]", "values": [
      {"measurement": "viable colonies recovered from the biofilm eradication procedure", "setting": "[1]; component alone at 7%", "value": "2.92E+04", "unit": "cfu/ml"},
      {"measurement": "viable colonies recovered from the biofilm eradication procedure", "setting": "[2]; component alone at 7%", "value": "2.24E+04", "unit": "cfu/ml"},
      {"measurement": "eradication of mature biofilm within 2 hours (in words)", "setting": "[2]; Pseudomonas Aeruginosa, 7% alone", "value": "neither 1 mg/ml GTN nor 7% citrate alone were able to eradicate"},
      {"measurement": "viable colonies recovered from the biofilm eradication procedure", "setting": "[3]; component alone at 7%", "value": "2.16E+04", "unit": "cfu/ml"},
      {"measurement": "eradication of mature biofilm within 2 hours (in words)", "setting": "[3]; Candida Albicans, 7% alone", "value": "neither 1 mg/ml GTN nor 7% citrate alone were able to eradicate"}
    ]},
    {"smiles": "O=S(=O)(O)CCS", "note": "[MesNA]", "values": [
      {"measurement": "viable colonies recovered from the biofilm eradication procedure", "setting": "[1]; component alone at 5%", "value": "5.00E+05", "unit": "cfu/ml"},
      {"measurement": "viable colonies recovered from the biofilm eradication procedure", "setting": "[2]; component alone at 5%", "value": "5.00E+05", "unit": "cfu/ml"},
      {"measurement": "viable colonies recovered from the biofilm eradication procedure", "setting": "[3]; component alone at 5%", "value": "5.00E+05", "unit": "cfu/ml"}
    ]}
  ]
}
